From patent US4423210A, “Intermediates for the preparation of 3-demethoxyfortimicins” (Abbott Laboratories, priority 1982, dated 1983) come the findings set out here.

Where a name gives a salt, the structure may show the parent alone. Read-outs that look alike come from different tables or passages of the source.

For test [1], the system named is E. coli BL 3676 (Res). As to the kind of experiment: in vitro antibiotic activity, two-fold agar dilution (MIC). It is filed as cell-based. The settings on record: Escherichia coli. As for the experimental part:
(§1) The in vitro activity of 3-demethoxyfortimicin A of Example 10 is determined by a two-fold dilution test using 10 ml. of Mueller-Hinton agar per Petri plate. The agar plates are innoculated with approximately 1×10^5 of the test organisms indicated in Table II, delivered to the agar surface by a Steers replicator. The innoculated plates are incubated for 24 hours at 35° C. in the presence of varying concentrations of 3-demethoxyfortimicin A tetrahydrochloride of Example 10 or fortimicin A sulfate as a comparative antibiotic.

For test [2], the system named is E. coli JUHL. The description is as above. It is filed as cell-based. The settings on record: Escherichia coli. The protocol:
as §1

Test [3] concerns Enterobacter aerogenes 13048. The test is described as above. Format: cell-based. The protocol:
as §1

Test [4] deals with Kleb. pneumoniae KY 4262. Described as above. It is filed as cell-based. As to conditions: Klebsiella pneumoniae. As for the experimental part: as §1
The subject of test [5] is Proteus mirabilis Fin. #9. Described as above. Format: cell-based. As for the experimental part: as §1
Test [6] relates to Proteus rettgeri U6333. The test is described as above. It is filed as cell-based. The settings on record: Providencia rettgeri. As for the experimental part: as §1
Test [7] deals with Proteus vulgaris JJ. Described as above. Format: cell-based. As for the experimental part:
as §1

Test [8] has as its system Providencia 1577. The description is as above. Format: cell-based. The protocol: as §1
Test [9] has as its system Pseudo. aeruginosa BMH #10. The description is as above. It is filed as cell-based. As to conditions: Pseudomonas aeruginosa. The protocol:
as §1

Test [10] relates to Pseudo. aeruginosa KY 8512. Described as above. As to conditions: Pseudomonas aeruginosa. Format: cell-based. The protocol:
as §1

Test [11] relates to Pseudo. aeruginosa KY 8516. The description is as above. The settings on record: Pseudomonas aeruginosa. Format: cell-based. The protocol: as §1
Test [12] deals with Serratia marcescens 4003. Described as above. Format: cell-based. As for the experimental part: as §1
Test [13] relates to Shigella sonnei 9290. The test is described as above. The settings on record: Mueller-Hinton agar, 24 hours, 35° C. It is filed as cell-based. The protocol: as §1
The subject of test [14] is Staph. aureus Smith. The test is described as above. The settings on record: Staphylococcus aureus. It is filed as cell-based. As for the experimental part:
as §1

Test [15] deals with Strep. faecalis 10541. The test is described as above. It is filed as cell-based. The protocol: as §1
Test [16] concerns E. coli 76-2. Described as above. It is filed as cell-based, Escherichia coli. The protocol:
as §1

Test [17] relates to Kleb. pneumoniae 10031. The description is as above. Format: cell-based, Klebsiella pneumoniae. The protocol:
as §1

Test [18] has as its system Pseudo aeruginosa 27853. The test is described as above. Format: cell-based, Pseudomonas aeruginosa. The protocol: as §1
Test [19] deals with Pseudo. aeruginosa 209. The description is as above. It is filed as cell-based, Pseudomonas aeruginosa. The protocol:
as §1

Test [20] relates to Sal. typhimurium Ed. #9. The description is as above. Format: cell-based, Salmonella typhimurium. As to conditions: Salmonella enterica. As for the experimental part: as §1
Test [21] deals with strains tested (Table II). As to the kind of experiment: overall antibiotic activity relative to fortimicin A sulfate. Format: cell-based. As for the experimental part:
as §1

Turning to `COC1C(O)C(N)C(OC2OC(C(C)N)CCC2N)C(O)C1N(C)C(=O)CN` (stereo not drawn) [Fortimicin A Sulfate, fortimicin A sulfate, reference compound], the minimal inhibitory concentration (MIC) in [1] (24 h) was 25 µg/mL; in test [2] (24 h) it was 3.1 µg/mL; in test [3] (Klebsiella aerogenes, 13048, 24 h), 3.1 µg/mL; in [4] (KY4262, 24 h), 6.2 µg/mL; in [5] (Proteus mirabilis, 24 h) it was 3.1 µg/mL; in test [6] (U6333, 24 h), 12.5 µg/mL. Besides, the MIC in test [7] (Proteus vulgaris, 24 h) was 3.1 µg/mL; in test [8] (Providencia, 1577, 24 h), 1.56 µg/mL; in test [9] (24 h), 0.78 µg/mL; in [10] (KY8512, 24 h), 6.2 µg/mL; in test [11] (KY8516, 24 h), 6.2 µg/mL; in test [12] (Serratia marcescens, 4003, 24 h), 3.1 µg/mL. For the same compound, the MIC worked out at 6.2 µg/mL in test [13]; 0.78 µg/mL in [14] (24 h); 50 µg/mL in test [15] (Enterococcus faecalis, 10541, 24 h); 3.1 µg/mL in [16] (Escherichia coli, 762, 24 h); 1.56 µg/mL in test [17] (Klebsiella pneumoniae, 10031, 24 h); 12.5 µg/mL in test [18] (Pseudomonas aeruginosa, 27853, 24 h). Moreover, the minimal inhibitory concentration (MIC) in test [19] (Pseudomonas aeruginosa, 209, 24 h) was found to be 100 µg/mL; in [20] (TYPHIMURIUM, 24 h) it was 3.1 µg/mL.
In the case of `CC(N)C1CCC(N)C(OC2C(N)C(O)CC(N(C)C(=O)CN)C2O)O1` (stereo not drawn) [3-Demethoxyfortimicin A tetrahydrochloride], the minimum inhibitory concentration (MIC) was found to be 25 µg/mL in test [1] (E. coli BL 3676 (Res), Mueller-Hinton agar, 24 hours, 35° C., read-out: MIC); 3.1 µg/mL in test [2] (E. coli JUHL, Mueller-Hinton agar, 24 hours, 35° C., read-out: MIC); 3.1 µg/mL in [3] (Klebsiella aerogenes, Enterobacter aerogenes 13048, Mueller-Hinton agar, 24 hours, 35° C., read-out: MIC); 3.1 µg/mL in test [4] (KY4262, Kleb. pneumoniae KY 4262, Mueller-Hinton agar, 24 hours, 35° C., read-out: MIC); 3.1 µg/mL in test [5] (Proteus mirabilis Fin. #9, Mueller-Hinton agar, 24 hours, 35° C., read-out: MIC); 6.2 µg/mL in test [6] (Proteus rettgeri U6333, Mueller-Hinton agar, 24 hours, 35° C., read-out: MIC). Moreover, the MIC in test [7] (Proteus vulgaris JJ, Mueller-Hinton agar, 24 hours, 35° C., read-out: MIC) came to 3.1 µg/mL; in test [8] (Providencia 1577, Mueller-Hinton agar, 24 hours, 35° C., read-out: MIC) it was 1.56 µg/mL; in [9] (Pseudo. aeruginosa BMH #10, Mueller-Hinton agar, 24 hours, 35° C., read-out: MIC), 0.78 µg/mL; in test [10] (KY8512, Pseudo. aeruginosa KY 8512, Mueller-Hinton agar, 24 hours, 35° C., read-out: MIC), 3.1 µg/mL; in test [11] (KY8516, Pseudo. aeruginosa KY 8516, Mueller-Hinton agar, 24 hours, 35° C., read-out: MIC), 3.1 µg/mL; in [12] (Serratia marcescens 4003, Mueller-Hinton agar, 24 hours, 35° C., read-out: MIC), 1.56 µg/mL. The minimal inhibitory concentration (MIC) stood at 3.1 µg/mL in test [13]; 0.78 µg/mL in [14] (Staph. aureus Smith, Mueller-Hinton agar, 24 hours, 35° C., read-out: MIC); 25 µg/mL in test [15] (Enterococcus faecalis, Strep. faecalis 10541, Mueller-Hinton agar, 24 hours, 35° C., read-out: MIC); 1.56 µg/mL in [16] (Escherichia coli, 762, E. coli 76-2, Mueller-Hinton agar, 24 hours, 35° C., read-out: MIC); 1.56 µg/mL in test [17] (Klebsiella pneumoniae, Kleb. pneumoniae 10031, Mueller-Hinton agar, 24 hours, 35° C., read-out: MIC); 6.2 µg/mL in test [18] (Pseudomonas aeruginosa, Pseudo aeruginosa 27853, Mueller-Hinton agar, 24 hours, 35° C., read-out: MIC). Moreover, the MIC was found to be 100 µg/mL in test [19] (Pseudomonas aeruginosa, Pseudo. aeruginosa 209, Mueller-Hinton agar, 24 hours, 35° C., read-out: MIC) and 3.1 µg/mL in test [20] (Sal. typhimurium Ed. #9, Mueller-Hinton agar, 24 hours, 35° C., read-out: MIC). For the same compound, in test [21] (against many of the susceptible strains tested), the “activity relative to that of fortimicin A sulfate” value is reported as roughly 200%. In addition, the “overall activity relative to that of fortimicin A sulfate” value in test [21] (overall, all strains of Table II) is on record as “approximately 137%”.
